Reference: US20230365627A1, “MACROCYCLIC PEPTIDE BORONATE IMMUNOMODULATORS” (Bristol-Myers Squibb Company, priority 2020, published 2023)
Read-outs that look alike come from different tables or passages of the source. *1 amine or outer side, *2 acyl side, *3 side chain or, on linkers, in order; H or OH if unused. Where a SMILES comes first, the peptide text is derived from it. Bridges are numbered along the chain shown (N, C = ends). [ ]: non-standard residue; d: D form. X23 = O=C([C@H](CN1Cc2ccc(cc2)B2O[C@@H]([C@H](O)[C@@H](C(O)CO)O2)[C@H](O)C1)N[*:1])[*:2]; X12 = O=C([C@H](CN1Cc2ccccc2B2O[C@@H]([C@H](O)[C@@H](C(O)CO)O2)[C@H](O)C1)N[*:1])[*:2]; X16 = O=C([C@H](CN(Cc1cccc(B(O)O[*:3])c1)Cc1cccc2ccc3ccccc3c12)N[*:1])[*:2]; X13 = O=C([C@H](CCNC[C@@H](O)[C@@H](O)[C@H](O)[C@H](O)C(O)CO)N[*:1])[*:2]; Trp(1-CH2CO) = O=C([C@H](Cc1cn(CC(=O)[*:3])c2ccccc12)N[*:1])[*:2]; Trp(1-CH2COOH) = N[C@@H](Cc1cn(CC(=O)O)c2ccccc12)C(=O)O; X8 = O=C([C@H](CNCc1ccc(B(O)O[*:3])cc1Cl)N[*:1])[*:2]; X11 = COc1ccc(CNCC[C@H](N[*:1])C(=O)[*:2])cc1B(O)O; X10 = COc1ccc(CNC[C@H](N[*:1])C(=O)[*:2])cc1B(O)O; X9 = O=C([C@H](CCNCc1ccc(B(O)O)cc1Cl)N[*:1])[*:2]; X17 = O=C([C@H](CCNCc1cccc(B(O)O)c1)N[*:1])[*:2]; Hyp = O=C(O)[C@@H]1C[C@@H](O)CN1; NMeNle = CCCC[C@H](NC)C(=O)O; NMeA = CN[C@@H](C)C(=O)O

Molecular target: PD-1/PD-L1 (Homo sapiens (Human), UniProt Q9NZQ7)
Sequence (Q9NZQ7 18-239): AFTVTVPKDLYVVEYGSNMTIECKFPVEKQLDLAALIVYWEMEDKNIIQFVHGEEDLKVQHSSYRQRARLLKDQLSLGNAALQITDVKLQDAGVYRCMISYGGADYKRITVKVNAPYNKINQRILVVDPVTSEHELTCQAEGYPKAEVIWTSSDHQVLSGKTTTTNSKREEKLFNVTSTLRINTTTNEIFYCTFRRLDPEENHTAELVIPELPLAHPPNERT
Experiment: PD-1/PD-L1 Homogenous Time-Resolved Fluorescence (HTRF) binding assay
[1] = PD-L1-His 10 nM, PD-1-Ig 20 nM, read-out: HTRF IC50

SMILES | IC50 [1] [nM] | IC50 [nM]
CCCC[C@H]1C(=O)N(C)[C@@H](CCCC)C(=O)N[C@@H](CC(C)C)C(=O)N[C@H](C(=O)NCC(N)=O)CSCC(=O)N[C@@H](Cc2ccc(O)cc2)C(=O)N(C)[C@@H](C)C(=O)N[C@@H](CC(N)=O)C(=O)N2CCC[C@H]2C(=O)N[C@@H](CNCc2ccc(OC)c(B(O)O)c2)C(=O)N[C@@H](CC(C)C)C(=O)N2C[C@H](O)C[C@H]2C(=O)N[C@@H](Cc2c[nH]c3ccccc23)C(=O)N[C@@H](CCNCc2ccc(OC)c(B(O)O)c2)C(=O)N[C@@H](Cc2cn(CC(=O)O)c3ccccc23)C(=O)N1C [Example 1032] ({CH2CO}-Y[NMeA]NP[X10]L[Hyp]W[X11][Trp(1-CH2COOH)][NMeNle][NMeNle]LCG-NH2; thioether N-14) | 5.9 | 
CCCC[C@H]1C(=O)N(C)[C@@H](CCCC)C(=O)N[C@@H](CC(C)C)C(=O)N[C@H](C(=O)NCC(N)=O)CSCC(=O)N[C@@H](Cc2ccc(O)cc2)C(=O)N(C)[C@@H](C)C(=O)N[C@@H](CC(N)=O)C(=O)N2CCC[C@H]2C(=O)N[C@H]2CNCc3ccc(cc3Cl)B(O)OC(=O)Cn3cc(c4ccccc43)C[C@H](NC(=O)[C@H](CCNCc3ccc(B(O)O)cc3Cl)NC(=O)[C@H](Cc3c[nH]c4ccccc34)NC(=O)[C@@H]3C[C@@H](O)CN3C(=O)[C@H](CC(C)C)NC2=O)C(=O)N1C [Example 1033] ({CH2CO}-Y[NMeA]NP[X8]L[Hyp]W[X9][Trp(1-CH2CO)][NMeNle][NMeNle]LCG-NH2; ester 5-10; thioether N-14) | 9 | 
CCCC[C@H]1C(=O)N(C)[C@@H](CCCC)C(=O)N[C@@H](CC(C)C)C(=O)N[C@H](C(=O)NCC(N)=O)CSCC(=O)N[C@H]2Cc3ccc(cc3)OB(O)c3ccc(nc3)CNCC[C@@H]3NC(=O)[C@H](Cc4c[nH]c5ccccc45)NC(=O)[C@@H]4C[C@@H](O)CN4C(=O)[C@H](CC(C)C)NC(=O)[C@H](CNCc4ccc(cn4)B(O)OC(=O)Cn4cc(c5ccccc54)C[C@H](NC3=O)C(=O)N1C)NC(=O)[C@@H]1CCCN1C(=O)[C@H](CC(N)=O)NC(=O)[C@H](C)N(C)C2=O [Example 1034] | 11 | 
CCCC[C@H]1C(=O)N(C)[C@@H](CCCC)C(=O)N[C@@H](CC(C)C)C(=O)N[C@H](C(=O)NCC(N)=O)CSCC(=O)N[C@@H](Cc2ccc(O)cc2)C(=O)N(C)[C@@H](C)C(=O)N[C@@H](CC(N)=O)C(=O)N2CCC[C@H]2C(=O)N[C@@H](CN2Cc3ccccc3B3O[C@@H]([C@H](O)[C@@H](C(O)CO)O3)[C@H](O)C2)C(=O)N[C@@H](CC(C)C)C(=O)N2C[C@H](O)C[C@H]2C(=O)N[C@@H](Cc2c[nH]c3ccccc23)C(=O)N[C@@H](CCNC[C@@H](O)[C@@H](O)[C@H](O)[C@H](O)C(O)CO)C(=O)N[C@@H](Cc2cn(CC(=O)O)c3ccccc23)C(=O)N1C (stereo partly drawn) [Example 1038] ({CH2CO}-Y[NMeA]NP[X12]L[Hyp]W[X13][Trp(1-CH2COOH)][NMeNle][NMeNle]LCG-NH2; thioether N-14) |  | 6.8
CCCC[C@H]1C(=O)N(C)[C@@H](CCCC)C(=O)N[C@@H](CC(C)C)C(=O)N[C@H](C(=O)NCC(N)=O)CSCC(=O)N[C@@H](Cc2ccc(O)cc2)C(=O)N(C)[C@@H](C)C(=O)N[C@@H](CC(N)=O)C(=O)N2CCC[C@H]2C(=O)N[C@@H](CN2Cc3ccc(cc3)B3O[C@@H]([C@H](O)[C@@H](C(O)CO)O3)[C@H](O)C2)C(=O)N[C@@H](CC(C)C)C(=O)N2C[C@H](O)C[C@H]2C(=O)N[C@@H](Cc2c[nH]c3ccccc23)C(=O)N[C@@H](CCNC[C@@H](O)[C@@H](O)[C@H](O)[C@H](O)C(O)CO)C(=O)N[C@@H](Cc2cn(CC(=O)O)c3ccccc23)C(=O)N1C (stereo partly drawn) [Example 1039] ({CH2CO}-Y[NMeA]NP[X23]L[Hyp]W[X13][Trp(1-CH2COOH)][NMeNle][NMeNle]LCG-NH2; thioether N-14) |  | 4.4
CCCC[C@H]1C(=O)N(C)[C@@H](CCCC)C(=O)N[C@@H](CC(C)C)C(=O)N[C@H](C(=O)NCC(N)=O)CSCC(=O)N[C@@H](Cc2ccc(O)cc2)C(=O)N(C)[C@@H](C)C(=O)N[C@@H](CC(N)=O)C(=O)N2CCC[C@H]2C(=O)N[C@H]2CN(Cc3cccc4ccc5ccccc5c34)Cc3cccc(c3)B(O)OC(=O)Cn3cc(c4ccccc43)C[C@H](NC(=O)[C@H](CCNCc3cccc(B(O)O)c3)NC(=O)[C@H](Cc3c[nH]c4ccccc34)NC(=O)[C@@H]3C[C@@H](O)CN3C(=O)[C@H](CC(C)C)NC2=O)C(=O)N1C [Example 1042] ({CH2CO}-Y[NMeA]NP[X16]L[Hyp]W[X17][Trp(1-CH2CO)][NMeNle][NMeNle]LCG-NH2; ester 5-10; thioether N-14) | 94 | 
